PubChem BioAssay (NCI)
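Assay format: 96-well plates, 48-hour exposure. At the TGI there is no net growth.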

What was measured:
Experiment in all cases: growth of human tumour cells (NCI), 48 h
[1] = test system: MCF7 breast
[2] = test system: XF 498 CNS
[3] = test system: DLD-1 colon
[4] = test system: DMS 114 small cell lung
[5] = test system: DMS 273 small cell lung
[6] = test system: HOP-18 NSCLC
[7] = test system: M19-MEL melanoma
[8] = test system: RXF-631 renal
[9] = test system: LXFL 529 NSCLC
[10] = test system: KM20L2 colon
[11] = test system: SNB-78 CNS

## COc1cc2c(NCCN(C)C)nc3c4cc5c(cc4ccc3c2cc1OC)OCO5
[1]
  TGI: 6.07 µM

## NC(CCCNc1ccc(O)cc1)C(=O)O (configuration not stated)
[2]
  TGI: 38.2 µM
[3]
  TGI: 42.6 µM
[4]
  TGI: 54.1 µM
[5]
  TGI: > 100 µM
[6]
  TGI: > 100 µM
[7]
  TGI: 32.7 µM
[8]
  TGI: > 100 µM
[9]
  TGI: 33.3 µM
[10]
  TGI: > 100 µM
[11]
  TGI: > 100 µM

## O=C1C(=Cc2cccc(Cl)c2)N=C(c2ccccc2)N1n1c(-c2ccccc2)nc2ccccc2c1=O
[1]
  TGI: > 100 µM

## O=c1oc2cc(O)ccc2c(O)c1C(c1ccc2ccccc2c1)c1c(O)c2ccc(O)cc2oc1=O
[1]
  TGI: > 100 µM

## Nc1c(C(=O)c2ccc(Cl)cc2)[nH]c(Nc2ccc(Cl)cc2)c1C(=S)Nc1ccccc1
[1]
  TGI: 21.6 µM

## CC(=O)NC1C(O)C(O)C(CO)OC1n1nc(SCc2ccccc2)c(=O)[nH]c1=O (configuration not stated)
[1]
  TGI: > 100 µM

## COc1cccc([C@@H]2C/C(=N\NC(=O)C(=O)N[C@@H](C)c3ccccc3)c3cc4c(cc3N2)OCO4)c1
[1]
  TGI: > 100 µM

## CC(/C=C/c1ccccc1)=N\N=C(C)\C=C\c1ccccc1
[2]
  TGI: > 100 µM
[3]
  TGI: > 100 µM
[5]
  TGI: > 100 µM
[7]
  TGI: > 100 µM
[9]
  TGI: > 100 µM
[10]
  TGI: > 100 µM
[11]
  TGI: > 100 µM

## O=C(CC(C(=O)c1cccs1)c1ccsc1)c1ccc(Cl)cc1 (configuration not stated)
[1]
  TGI: > 100 µM

## CSc1ccc(/C=C/C(=O)c2nc3ccccc3[nH]2)cc1
[1]
  TGI: 8.97 µM

## CC(=O)O[C@H]1C[C@H]2[C@@H]([C@H](OC(C)=O)C[C@@H]3CC4(CC[C@@]32C)OOC2(CCCCC2)OO4)[C@@H]2CC[C@H]([C@H](C)CCC(N)=O)[C@@]12C
[1]
  TGI: 9.29 µM

## COC(=O)C12OCC34C(CC5C(C)C6=CC(=O)OC6=CC5(C)C3C(O)C1O)OC(=O)C(OC(C)=O)C24 (configuration not stated)
[2]
  TGI: 25.4 µM
[3]
  TGI: 25.3 µM
[4]
  TGI: 35.4 µM
[5]
  TGI: 30.2 µM
[6]
  TGI: 27.9 µM
[7]
  TGI: 40.9 µM
[8]
  TGI: 33.9 µM
[9]
  TGI: 31.5 µM
[10]
  TGI: 33.3 µM
[11]
  TGI: 48.7 µM

## O=S(Nc1ccccc1)c1ccccc1Oc1ccccc1 (configuration not stated)
[1]
  TGI: > 100 µM

## CCN1C(=O)/C(=C\c2coc3ccccc3c2=O)SC1=S
[2]
  TGI: > 100 µM
[3]
  TGI: > 100 µM
[4]
  TGI: > 100 µM
[5]
  TGI: > 100 µM
[6]
  TGI: > 100 µM
[7]
  TGI: > 100 µM
[9]
  TGI: > 100 µM
[10]
  TGI: > 100 µM
[11]
  TGI: > 100 µM

## O=C(O)c1[nH]c(=O)[nH]c(=O)c1CN1CCCCC1
[1]
  TGI: > 100 µM

## CCOC(=O)c1ccc(OCc2nc3cc(C(F)(F)F)ccc3nc2-c2ccccc2)cc1
[1]
  TGI: > 100 µM

## Cc1ccc2c(=O)cc(-c3cc4ccccc4s3)[nH]c2n1
[1]
  TGI: > 100 µM

## COC1CC(=O)C2C(=O)N(c3ccccc3)C(=O)C23C(C(=O)c2ccccc2)=C(C)NC13O (configuration not stated)
[1]
  TGI: 16.7 µM

## COc1c(N2CCCCC2)c2c(=O)c3ccccc3oc2c2cc(C)oc12
[1]
  TGI: > 100 µM

## O=C1CC2(CCN(CC3COc4ccccc4O3)CC2)C(=O)N1N1CCCCCC1 (configuration not stated)
[1]
  TGI: > 100 µM

## N=C1/C(=C/c2ccco2)C(=O)N=C2SC=NN12
[1]
  TGI: > 100 µM

## CN(C)CCn1c2c(c3ccccc31)CCc1ccccc1-2
[1]
  TGI: 30.5 µM

## Clc1ccc(C2ON=C(c3ccccc3)N2C23CC4CC(CC(C4)C2)C3)cc1Cl (configuration not stated)
[1]
  TGI: > 10 µM

## Cc1ccc([N+]2=NC(c3ccc([N+](=O)[O-])cc3)=NN(c3ccccc3)C2)cc1
[2]
  TGI: > 100 µM
[3]
  TGI: > 100 µM
[4]
  TGI: > 100 µM
[5]
  TGI: > 100 µM
[7]
  TGI: > 100 µM
[9]
  TGI: > 100 µM
[10]
  TGI: > 100 µM
[11]
  TGI: > 100 µM

## CC(=O)Oc1c(C)cc2c(c1C)C(C)(C)CN2C(=O)C(C)(C)C
[1]
  TGI: > 100 µM

## Cc1cc2nn(C3CCCCO3)nc2cc1C (configuration not stated)
[1]
  TGI: > 100 µM

## CCOc1cc(/C=N\O)cc(/C=N/O)c1O
[1]
  TGI: 25 µM

## CCCCCCCCCCCCCCCCCCNc1ccn(C2OC(COP(=O)(O)OCC(COP(=O)(O)OCC3OC(n4cc(C)c(=O)[nH]c4=O)CC3N=[N+]=[N-])OCCCCCCCCCCCCCCCCCC)C(O)C2O)c(=O)n1 (configuration not stated)
[1]
  TGI: > 100 µM

## O=C1CCN=C(NC(=O)C(F)(F)F)N1CCc1c[nH]c2ccccc12
[1]
  TGI: > 100 µM

## CC[C@]1(Cc2ccc(OC)c(OC)c2)C=[N+]([O-])O[C@H](OC2CCCCC2c2ccccc2)[C@@H]1OC(C)=O (some centres not stated)
[1]
  TGI: > 100 µM

## O=P1(N(CCCl)CCCl)Oc2c(Cl)cc(Cl)c(Cl)c2Cc2c(Cl)c(Cl)cc(Cl)c2O1
[1]
  TGI: > 100 µM

## CCCCCCCCCCCCCCCCOP(=O)(O)OP(=O)(O)OCC1OC(n2cnc3c(N)ncnc32)C(O)C1O (configuration not stated)
[1]
  TGI: > 100 µM

## Cn1c(=O)c2c(nc(N3CCOCC3)n2CCCNCC(O)c2ccc(O)c(O)c2)n(C)c1=O (configuration not stated)
[1]
  TGI: > 100 µM

## COc1cc(C(=O)O)cc2c1[nH]c1ccccc12
[3]
  TGI: > 25 µM
[4]
  TGI: > 25 µM
[5]
  TGI: > 25 µM
[7]
  TGI: > 25 µM
[9]
  TGI: > 25 µM
[10]
  TGI: > 25 µM
[11]
  TGI: > 25 µM

## COc1ccc2c(c1)CC[C@@H]1C2CC[C@]2(C)C(=N\O)/C(=N/O)CC12 (some centres not stated)
[2]
  TGI: 29.6 µM
[3]
  TGI: 36.6 µM
[5]
  TGI: 26.7 µM
[6]
  TGI: 30.4 µM
[7]
  TGI: 37 µM
[9]
  TGI: 26.8 µM
[10]
  TGI: 18.5 µM
[11]
  TGI: 47.5 µM
